Laboratory results taken from US11034718B2, “C-3 novel triterpenone with C-17 reverse amide derivatives as HIV inhibitors” (HETERO LABS LIMITED, priority 2015, dated 2021).
Structures can show the parent of a compound that is named as a salt. Where two headings read alike, the source gives them in different places.

Tested on: HIV-1 strain 92HT599
Experiment: Antiviral activity against HIV-1 strain 92HT599 in MT2 cells (p24 estimation)
Format: cell-based
Settings: HIV-1 92HT599, ~96 hours
Experimental: Example 77: Evaluation of Compounds Antiviral Activity Against HIV-1 Strain 92HT599 in MT2 Cells
MT2 cells were infected with HIV-1 strain 92HT599 (10 TCID 50/30000 cells). The infected cells were plated at the concentration of 30,000 cells per well in 96 well plate. Test compound was added to the micro plate in defined format with the final concentration of DMSO (vehicle) is not more than 1%. Incubation was carried out in CO2 incubator for ˜96 hours for viral infection. At the end of incubation period an aliquot from each well was taken for p24 estimation. The quantitation of p24 is an index for antiviral activity of the compound. Percent inhibition was calculated with reference to control values (vehicle controls). p24 estimation was carried out using Advance biosciences kit as per the procedure detailed by supplier.

[1] = Human immunodeficiency virus 1, 0% serum binding assay, read-out: IC50 0% serum
[2] = Human immunodeficiency virus 1, 40% serum binding assay, read-out: IC50 40% serum

Compound | IC50 [1] | IC50 [2]
CC(C)C1=C2[C@H]3CC[C@@H]4[C@@]5(C)CC[C@H](OC(=O)[C@H]6C[C@@H](C(=O)O)C6(C)C)C(C)(C)[C@@H]5CC[C@@]4(C)[C@]3(C)CC[C@@]2(NC(=O)C(C)(C)NC(=O)C2(c3ccc(Cl)cc3)CC2)CC1=O [Example 2, (1R,3S)-3-((((3aR,5aR,5bR,7aR,9S,11aR,11bR,13aS)-3a-(2-(1-(4-chlorophenyl)cyclopropane-1-carboxamido)-2-methylpropanamido)-1-isopropyl-5a,5b,8,8,11a-pentamethyl-2-oxo-3,3a,4,5,5a,5b,6,7,7a,8,9,10,11,11a,11b,12,13,13a-octadecahydro-2H-cyclopenta[a]chrysen-9-yl)oxy)carbonyl)-2,2-dimethylcyclobutane-1-carboxylic acid] | 3.01 to 10 nM | < 50 nM
CC(C)C1=C2[C@H]3CC[C@@H]4[C@@]5(C)CC[C@H](OC(=O)[C@H]6C[C@@H](C(=O)O)C6(C)C)C(C)(C)[C@@H]5CC[C@@]4(C)[C@]3(C)CC[C@@]2(NC(=O)C(C)(C)NC(=O)c2ccccc2)CC1=O [Example 3, (1R,3S)-3-((((3aR,5aR,5bR,7aR,9S,11aR,11bR,13aS)-3a-(2-benzamido-2-methylpropanamido)-1-isopropyl-5a,5b,8,8,11a-pentamethyl-2-oxo-3,3a,4,5,5a, 5b,6,7,7a,8,9,10,11,11a,11b,12,13,13a-octadecahydro-2H-cyclopenta[a]chrysen-9-yl)oxy)carbonyl)-2,2-dimethylcyclobutane-1-carboxylic acid] | < 3 nM | < 50 nM
CC(C)C1=C2[C@H]3CC[C@@H]4[C@@]5(C)CC[C@H](OC(=O)[C@H]6C[C@@H](C(=O)O)C6(C)C)C(C)(C)[C@@H]5CC[C@@]4(C)[C@]3(C)CC[C@@]2(NC(=O)C(C)(C)NC(=O)c2ccc(Cl)c(Cl)c2)CC1=O [Example 4, (1R,3S)-3-((((3aR,5aR,5bR,7aR,9S,11aR,11bR,13aS)-3a-(2-(3,4-dichlorobenzamido)-2-methylpropanamido)-1-isopropyl-5a,5b,8,8,11a-pentamethyl-2-oxo-3,3a,4,5,5a,5b,6,7,7a,8,9,10,11,11a,11b,12,13,13a-octadecahydro-2H-cyclopenta[a]chrysen-9-yl)oxy)carbonyl)-2,2-dimethylcyclobutane-1-carboxylic acid] | < 3 nM | < 50 nM
CC(C)C1=C2[C@H]3CC[C@@H]4[C@@]5(C)CC[C@H](OC(=O)[C@H]6C[C@@H](C(=O)O)C6(C)C)C(C)(C)[C@@H]5CC[C@@]4(C)[C@]3(C)CC[C@@]2(NC(=O)C(C)(C)NC(=O)c2ccc(N)nc2)CC1=O [Example 6, (1R,3S)-3-((((3aR,5aR,5bR,7aR,9S,11aR,11bR,13aS)-3a-(2-(6-aminonicotinamido)-2-methylpropanamido)-1-isopropyl-5a,5b,8,8,11a-pentamethyl-2-oxo-3,3a,4,5,5a,5b,6,7,7a,8,9,10,11,11a,11b,12,13,13a-octadecahydro-2H-cyclopenta[a]chrysen-9-yl)oxy)carbonyl)-2,2-dimethylcyclobutane-1-carboxylic acid] | < 3 nM | 50 to 200 nM
CC(C)C1=C2[C@H]3CC[C@@H]4[C@@]5(C)CC[C@H](OC(=O)[C@H]6C[C@@H](C(=O)O)C6(C)C)C(C)(C)[C@@H]5CC[C@@]4(C)[C@]3(C)CC[C@@]2(NC(=O)C(C)(C)NC(=O)[C@@H]2CCCN2C(=O)OC(C)(C)C)CC1=O [Example 8] | < 3 nM | < 50 nM
CCN1CCN(CC(=O)NC(C)(C)C(=O)N[C@@]23CC[C@]4(C)[C@H](CC[C@@H]5[C@@]6(C)CC[C@H](OC(=O)[C@H]7C[C@@H](C(=O)O)C7(C)C)C(C)(C)[C@@H]6CC[C@]54C)C2=C(C(C)C)C(=O)C3)CC1 [Example 9, (1R,3S)-3-((((3aR,5aR,5bR,7aR,9S,11aR,11bR,13aS)-3a-(2-(2-(4-ethylpiperazin-1-yl)acetamido)-2-methylpropanamido)-1-isopropyl-5a,5b,8,8,11a-pentamethyl-2-oxo-3,3a,4,5,5a,5b,6,7,7a,8,9,10,11,11a,11b,12,13,13a-octadecahydro-2H-cyclopenta[a]chrysen-9-yl)oxy)carbonyl)-2,2-dimethylcyclobutane-1-carboxylic acid] | < 3 nM | > 200 nM
CC(C)C1=C2[C@H]3CC[C@@H]4[C@@]5(C)CC[C@H](OC(=O)[C@H]6C[C@@H](C(=O)O)C6(C)C)C(C)(C)[C@@H]5CC[C@@]4(C)[C@]3(C)CC[C@@]2(NC(=O)C(C)(C)NC(=O)CN2CCCCC2)CC1=O [Example 10, (1R,3S)-3-((((3aR,5aR,5bR,7aR,9S,11aR,11bR,13aS)-1-isopropyl-5a,5b,8,8,11a-pentamethyl-3a-(2-methyl-2-(2-(piperidin-1-yl)acetamido)propan amido)-2-oxo-3,3a,4,5,5a,5b,6,7,7a,8,9,10,11,11a,11b,12,13,13a-octadecahydro-2H-cyclopenta[a]chrysen-9-yl)oxy)carbonyl)-2,2-dimethylcyclobutane-1-carboxylic acid] | < 3 nM | < 50 nM
CC(C)C1=C2[C@H]3CC[C@@H]4[C@@]5(C)CC[C@H](OC(=O)[C@H]6C[C@@H](C(=O)O)C6(C)C)C(C)(C)[C@@H]5CC[C@@]4(C)[C@]3(C)CC[C@@]2(NC(=O)C(C)(C)NC(=O)C(C)(C)N)CC1=O [Example 11, (1R,3S)-3-((((3aR,5aR,5bR,7aR,9S,11aR,11bR,13aS)-3a-(2-(2-amino-2-methylpropanamido)-2-methylpropanamido)-1-isopropyl-5a,5b,8,8,11a-pentamethyl-2-oxo-3,3a,4,5,5a,5b,6,7,7a,8,9,10,11,11a,11b,12,13,13a-octadecahydro-2H-cyclopenta[a]chrysen-9-yl)oxy)carbonyl)-2,2-dimethylcyclobutane-1-carboxylic acid hydrochloride] | < 3 nM | 50 to 200 nM
CC(C)C1=C2[C@H]3CC[C@@H]4[C@@]5(C)CC[C@H](OC(=O)[C@H]6C[C@@H](C(=O)O)C6(C)C)C(C)(C)[C@@H]5CC[C@@]4(C)[C@]3(C)CC[C@@]2(NC(=O)C(C)(C)NC(=O)c2ccc3[nH]cnc3c2)CC1=O [Example 12, (1R,3S)-3-((((3aR,5aR,5bR,7aR,9S,11aR,11bR,13aS)-3a-(2-(1H-benzo[d]imidazole-5-carboxamido)-2-methylpropanamido)-1-isopropyl-5a,5b,8,8,11a-pentamethyl-2-oxo-3,3a,4,5,5a,5b,6,7,7a,8,9,10,11,11a,11b,12,13,13a-octadecahydro-2H-cyclopenta[a]chrysen-9-yl)oxy)carbonyl)-2,2-dimethylcyclobutane-1-carboxylic acid] | < 3 nM | 50 to 200 nM
Cc1ccc(-c2nc3cc(C(=O)NC(C)(C)C(=O)N[C@@]45CC[C@]6(C)[C@H](CC[C@@H]7[C@@]8(C)CC[C@H](OC(=O)[C@H]9C[C@@H](C(=O)O)C9(C)C)C(C)(C)[C@@H]8CC[C@]76C)C4=C(C(C)C)C(=O)C5)ccc3[nH]2)cn1 [Example 13, (1R,3S)-3-((((3aR,5aR,5bR,7aR,9S,11aR,11bR,13aS)-1-isopropyl-5a,5b,8,8,11a-pentamethyl-3a-(2-methyl-2-(2-(6-methylpyridin-3-yl)-1H-benzo[d]imidazole-5-carboxamido)propanamido)-2-oxo-3,3a,4,5,5a,5b,6,7,7a,8,9,10,11,11a,11b,12,13,13a-octadecahydro-2H-cyclopenta[a]chrysen-9-yl)oxy)carbonyl)-2,2-dimethylcyclobutane-1-carboxylic acid] | < 3 nM | < 50 nM
